Laboratory results taken from US4642355A, “Proline derivatives” (Otsuka Pharmaceutical Factory, Inc., priority 1984, dated 1987).
Structures can show the parent of a compound that is named as a salt.

Experiments:
[1] = tested on: angiotensin-converting enzyme (ACE); test: ACE inhibitory effect in normotensive rats (inhibition of pressor response to angiotensin I); format: in vivo; details: 1 mg/kg directly to the stomach, male Wistar rats, urethane anesthesia, AI/AII ratio
Description: ACE Inhibitory effect in normotensive rats
Male Wistar rats weighing 200 to 400 g were anesthetized by the intraperitoneal injection of urethane (1.25 g/kg) and held in the supine position. The degree of inhibition of pressor response to angiotensin (A) I was determined using these rats. The blood pressure was measured with a femoral artery cannula connected to a transducer (product of Nihon Kohden Kabushiki Kaisha, Japan, Model MPU-0.5-290-0-III) and recorded in terms of a mean blood pressure value through a carrier amplifier (product of Nihon Kohden Kabushiki Kaisha, Japan, Model RP-5) on a multipurpose polygraph (product of Nihon Kohden Kabushiki Kaisha, Japan, Model RM-85). The rats were set in an experimental device and left therein for 1 hour to stabilize the hemodynamics. Then experiments were commenced. Since the magnitude of the pressor response to AI varies with time, the ratio of the responses to AI and AII (AI/AII ratio) was used to determine the magnitude of the pressor response to AI which ratio remained more constant. Through the cannulated femoral vein, AI (300 ng/kg) was administered first and AII (300 ng/kg) was given in 5 minutes to measure an AI/AII ratio. At 30 minutes after the first administration of AI, AI (300 ng/kg) was similarly administered and AII (300 ng/kg) was given in 5 minutes, followed by measuring an AI/AII ratio. This procedure was repeated until a constant value of AI/AII ratio was obtained. (The mean value of AI/AII ratios each resulting from the repeated procedure is represented as "C" in an equation to be shown later). At 10 minutes after the final administration of AII, an aqueous solution containing 1 mg/kg of each test compound was given directly to the stomach through a vinyl tube. At 10 minutes after administration of the test compound, AI (300 ng/kg) was given and at 5 minutes later, AII (300 ng/kg) was administered, followed by measurement of the AI/AII ratio (which was represented as "E" in the following equation). An ACE percent inhibition was calculated according to the equation indicated below. [formula]
Subsequently at each time of 60, 120 and 240 minutes after the administration of the test compound, AI (300 ng/kg) was given in the same manner as above and AII (300 ng/kg) was administered in 5 minutes, whereupon an ACE percent inhibition was calculated in the same way.
The results are shown below in Table 26 in which the test compounds listed are those prepared in the Examples indicated therein.

[2] = biological target: T1, angiotensin-converting enzyme (ACE) (Oryctolagus cuniculus, UniProt P12822); test: Inhibitory activity against angiotensin-converting enzyme (ACE); format: biochemical, rabbit; details: for ACE inhibitory activity higher than Test Compound No. 4 (fold): compared with Test Compound No. 4; for IC50: enzyme from rabbit lung acetone powder, substrate hippurylhistidyl-leucine, 37° C.
T1 construct: enzyme solution prepared from rabbit lung acetone powder; tissue Sigma Chemical Co., Ltd., U.S.A; host or cells: rabbit lung (acetone powder)
T1 sequence (P12822 34-1310): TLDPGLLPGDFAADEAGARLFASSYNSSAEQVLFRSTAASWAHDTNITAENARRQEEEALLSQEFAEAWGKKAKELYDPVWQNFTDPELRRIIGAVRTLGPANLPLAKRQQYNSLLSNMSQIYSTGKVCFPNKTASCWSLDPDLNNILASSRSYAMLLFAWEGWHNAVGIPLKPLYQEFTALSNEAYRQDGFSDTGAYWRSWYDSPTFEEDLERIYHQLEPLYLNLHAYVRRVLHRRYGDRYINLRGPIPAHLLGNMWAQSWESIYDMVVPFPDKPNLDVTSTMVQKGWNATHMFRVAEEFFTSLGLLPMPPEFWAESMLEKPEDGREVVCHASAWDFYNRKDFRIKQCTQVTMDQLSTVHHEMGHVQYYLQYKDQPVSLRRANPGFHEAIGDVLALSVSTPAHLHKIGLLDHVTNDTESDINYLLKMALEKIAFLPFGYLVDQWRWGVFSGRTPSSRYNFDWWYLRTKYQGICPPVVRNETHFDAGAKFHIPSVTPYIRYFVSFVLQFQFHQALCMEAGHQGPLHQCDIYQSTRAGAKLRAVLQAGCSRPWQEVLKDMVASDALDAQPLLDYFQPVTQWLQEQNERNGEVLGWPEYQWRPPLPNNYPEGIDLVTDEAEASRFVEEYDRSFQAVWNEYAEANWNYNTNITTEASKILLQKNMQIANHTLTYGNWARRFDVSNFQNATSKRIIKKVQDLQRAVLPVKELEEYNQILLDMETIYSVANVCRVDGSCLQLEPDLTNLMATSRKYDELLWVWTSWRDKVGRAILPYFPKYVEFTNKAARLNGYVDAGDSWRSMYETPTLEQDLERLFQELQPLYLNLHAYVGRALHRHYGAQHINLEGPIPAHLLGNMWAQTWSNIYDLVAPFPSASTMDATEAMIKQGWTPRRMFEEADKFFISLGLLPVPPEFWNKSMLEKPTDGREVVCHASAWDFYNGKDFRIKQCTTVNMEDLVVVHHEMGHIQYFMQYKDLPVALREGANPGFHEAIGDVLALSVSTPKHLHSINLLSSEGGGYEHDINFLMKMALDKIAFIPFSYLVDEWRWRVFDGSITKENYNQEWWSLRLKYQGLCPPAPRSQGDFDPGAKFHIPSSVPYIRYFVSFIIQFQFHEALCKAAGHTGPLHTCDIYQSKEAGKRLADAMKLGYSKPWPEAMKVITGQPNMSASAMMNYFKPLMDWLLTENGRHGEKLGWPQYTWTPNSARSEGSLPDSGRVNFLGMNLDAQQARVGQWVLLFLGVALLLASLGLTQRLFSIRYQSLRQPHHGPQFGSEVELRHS
Description: Inhibitory activity against angiotensin-converting enzyme (ACE)
A 100 μl quantity of an enzyme solution prepared from rabbit lung acetone powder (product of Sigma Chemical Co., Ltd., U.S.A.) was mixed with 100 μl of a sample solution. The mixture was gently shaken at 37° C. for 10 minutes. To the reaction mixture was added 100 μl of a solution containing 6.99 mM of hippurylhistidyl-leucine (product of Peptide Institute, Inc., Japan) as a substrate. The mixture was reacted at 37° C. for 45 minutes while being shaken. The reaction was terminated by addition of 200 μl of a 1N sulfuric acid aqueous solution to the reaction mixture. Sodium chloride (saturation amount) and diethyl ether (2 ml) were added to the reaction mixture to extract the hippuric acid formed by the reaction. The resulting mixture was vigorously shaken for 15 minutes and centrifuged at 2000 rpm for 5 minutes. A 1.5 ml quantity of the ether layer was separated. After the solvent was distilled off, the residue was redissolved in 1.5 ml of distilled water and the absorbance at 228 nm was measured. A control was prepared by repeating the same procedure as above except that 100 μl of distilled water was used in place of the sample solution.
The inhibitory activity was calculated by deducting the absorbance value of the residue formed by addition of the sample solution from that of the control, and the resulting value was divided by the absorbance value of the control and multiplied by 100, thereby giving a percent inhibition. The inhibitory activity was expressed as IC50, i.e., the concentration of the sample solution in the reaction mixture in which concentration 50% inhibition is achieved.
The test compounds used in the experiment are shown below.

[3] = 15 min. after administration, 1 mg/kg
[4] = 60 min. after administration, 1 mg/kg
[5] = 120 min. after administration, 1 mg/kg
[6] = 240 min. after administration, 1 mg/kg

| Structure (SMILES) | ACE Percent Inhibition, mean ± SD ([1]; 15 min. after administration) [%] | ACE Percent Inhibition, mean ± SD ([1]; 60 min. after administration) [%] | ACE Percent Inhibition, mean ± SD ([1]; 120 min. after administration) [%] | ACE Percent Inhibition, mean ± SD ([1]; 240 min. after administration) [%] | further results |
| --- | --- | --- | --- | --- | --- |
| CCOC(=O)[C@H](CSCC1CCCCC1)NC(C)C(=O)N1CCC[C@H]1C(=O)O (stereo partly shown) [Example 21] | 22 ± 25 | 38 ± 29 | 58 ± 15 | 56 ± 14 | – |
| CCCCCSC[C@H](NC(C)C(=O)N1CCC[C@H]1C(=O)O)C(=O)O (stereo partly drawn) [Test Compound 3, N--[(R)--1-carboxy-2-pentylthioethyl]-alanyl-(S)--proline (β-isomer)] | – | – | – | – | ACE inhibitory activity higher than Test Compound No. 4 (fold) [2]: about 122 times; IC50 [2]: 0.104 nM |
| CCOC(=O)[C@H](CSCC=C(C)C)NC(C)C(=O)N1CCC[C@H]1C(=O)O (stereo partly shown) [Example 32] | 15 ± 9 | 31 ± 7 | 33 ± 9 | 29 ± 8 | – |
| CCCCCCSC[C@H](NC(C)C(=O)N1CCC[C@H]1C(=O)O)C(=O)O (single isomer, unassigned) [Test Compound 1] | – | – | – | – | ACE inhibitory activity higher than Test Compound No. 4 (fold) [2]: about 24 times; IC50 [2]: 0.521 nM |
| CCCCCC(SC[C@H](NC(C)C(=O)N1CCC[C@H]1C(=O)O)C(=O)OCC)C(=O)OCC (stereo partly shown) [Ex. No. 67*^1] | – | – | – | – | ACE Percent Inhibition, mean ± SD [1, 3]: 23 ± 35%; ACE Percent Inhibition, mean ± SD ([1]; 15 min. after administration, listed as Ex. No. 67*^2, 1 mg/kg): 46 ± 29%; ACE Percent Inhibition, mean ± SD [1, 4]: 55 ± 11%; ACE Percent Inhibition, mean ± SD ([1]; 60 min. after administration, listed as Ex. No. 67*^2, 1 mg/kg): 76 ± 10%; ACE Percent Inhibition, mean ± SD [1, 5]: 59 ± 4%; ACE Percent Inhibition, mean ± SD ([1]; 120 min. after administration, listed as Ex. No. 67*^2, 1 mg/kg): 61 ± 14%; ACE Percent Inhibition, mean ± SD [1, 6]: 63 ± 9%; ACE Percent Inhibition, mean ± SD ([1]; 240 min. after administration, listed as Ex. No. 67*^2, 1 mg/kg): 65 ± 7% |
| CCCCCCCSC[C@H](NC(C)C(=O)N1CCC[C@H]1C(=O)O)C(=O)OCC (stereo partly drawn) [Example 18, N-[(R)-1-ethoxycarbonyl-2-heptylthioethyl]-alanyl-(S)-proline (β-isomer) and maleate] | 77 ± 8 | 75 ± 23 | 84 ± 10 | 63 ± 6 | – |
| CCCCCCCCSC[C@H](NC(C)C(=O)N1CCC[C@H]1C(=O)O)C(=O)OCC (stereo partly drawn) [Example 81, N-[(R)-1-ethoxycarbonyl-2-octylthio-ethyl]-alanyl-(S)-proline (β-isomer).L-arginine salt] | 14 ± 17 | 43 ± 18 | 47 ± 11 | 55 ± 6 | – |
| CCCCCCSC[C@H](NC(C)C(=O)N1CCC[C@H]1C(=O)O)C(=O)OCC (stereo partly drawn) [Example 5, N-[(R)-1-ethoxycarbonyl-2-hexylthioethyl]-alanyl-(S)-proline(β-isomer) and L-arginine salt thereof] | 28 ± 14 | 54 ± 3 | 54 ± 17 | 55 ± 7 | – |
| CCCCCCCSC[C@H](NC(C)C(=O)N1CCC[C@H]1C(=O)OCC)C(=O)OCC (stereo partly shown) [Example 40] | 37 ± 19 | 55 ± 18 | 57 ± 13 | 70 ± 9 | – |
| CCCCCCCSC[C@H](NC(C)C(=O)N1CCC[C@H]1C(=O)OCc1ccccc1)C(=O)OCC (stereo partly shown) [Example 42] | 27 ± 1 | 17 ± 18 | 57 ± 7 | 66 ± 7 | – |
| CCCCCCC(SC[C@H](NC(C)C(=O)N1CCC[C@H]1C(=O)O)C(=O)OCC)C(=O)OCC (stereo partly shown) [Ex. No. 71*^4] | – | – | – | – | ACE Percent Inhibition, mean ± SD [1, 3]: 47 ± 24%; ACE Percent Inhibition, mean ± SD [1, 4]: 69 ± 6%; ACE Percent Inhibition, mean ± SD [1, 5]: 70 ± 10%; ACE Percent Inhibition, mean ± SD [1, 6]: 60 ± 10% |
| CCCCCCC(SC[C@H](NC(C)C(=O)N1CCC[C@H]1C(=O)O)C(=O)OCC)C(=O)OCC (stereo partly shown) [Ex. No. 71*^ 3] | – | – | – | – | ACE Percent Inhibition, mean ± SD [1, 3]: 39 ± 34%; ACE Percent Inhibition, mean ± SD [1, 4]: 65 ± 14%; ACE Percent Inhibition, mean ± SD [1, 5]: 60 ± 2%; ACE Percent Inhibition, mean ± SD [1, 6]: 67 ± 3% |
| CCCCCCCSC[C@H](NC(C)C(=O)N1CCC[C@H]1C(=O)OC)C(=O)OCC (stereo partly shown) [Example 39] | 39 ± 59 | 79 ± 30 | 76 ± 5 | 88 ± 3 | – |
